Measurements taken from US20250362302A1, “INTRACELLULAR LIGATION OF PHOTOCATALYSTS FOR PHOTO-RESPONSIVE, PROBE-MEDIATED PROTEIN LABELING” (Seed Therapeutics US, Inc., priority 2022, published 2025).

Legend:
PI3 Kinase P110α = test: Photo-responsive labeling within live cells, HALO-tag immunoprecipitation, Western blot with Anti-PI3k antibody; assay type: cell-based, human; settings: labeling agent 250 μM, photocatalyst 10 μM, irradiation 450 nm 10 minutes, cell line 021
Description: (§1) Initially, reagents were prepared. An Ir—Cl photocatalyst master stock solution was prepared at 10 mM in 100% DMSO. The specific Ir—Cl photocatalyst used in this example was the photocatalyst prepared in accordance with Example 2. To create a working solution for the Ir—Cl catalyst, a portion of the Ir—Cl catalyst master stock solution was diluted in 1×DPBS, such that the final Ir—Cl catalyst concentration was 10 μM and the DMSO concentration was 0.1%. A labeling agent master stock was also prepared, having a 25 mM concentration in 100% DMSO. The particular labeling agent used was the one prepared in accordance with Example 1. To create a working solution for the labeling agent, a portion of the labeling agent master stock solution was diluted in 1×DPBS, such that the final concentration of labeling agent was 250 μM and the DMSO concentration was 1%.
(§2) A human KRAS (G12DHaloTag®/+) cell line (HD-103-021, Horizon Discovery) with protein reporter was grown to 80-90% confluence. Cells were harvested and pelleted down by centrifuging at 1000 g, for 5 minutes at 4° C. (Eppendorf Centrifuge 5427 R). Supernatant was discarded and the cell pellet was resuspended in ice cold 1×DPBS (Gibco™) and mixed. Subsequently, cells were again pelleted down by centrifuging at 1000 g, for 5 minutes at 4° C. Supernatant was discarded and fresh ice cold 1×DPBS was added to the pellet and mixed. […]

[1] = system: bovine serum albumin (BSA); test: Catalyst-dependent biotinylation of bovine serum albumin, fluorescent Western blot with anti-biotin antibody; assay type: biochemical; settings: labeling reagent WH8 100 uM, BSA 10 uM, catalyst 5 μM and 10 μM, 5 minutes irradiation at 450 nm; no band without irradiation
Description: Photocatalyst was combined with diazirine labeling compounds 8 or 9 and BSA in DPBS to yield reaction mixtures with 200 uL total solution volume. BSA concentration was 10 uM; diazirine labeling compound was fixed as 100 uM; the final catalyst concentration was set as 5 uM and 10 uM respectively. These samples were then either placed in the dark or irradiated with visible (450 nm) light in a M2 photoreactor for 5 minutes at 100% intensity. 60 uL samples were then removed, combined with 20 μL of 4× reducing SDS-Laemmli buffer (with 1:10 1 M DTT), mixed and heated at 95° C. for 5 minutes. 15 μL of each sample was then analyzed by Fluorescent western blot.
The sample was loaded into a 4-20% Tris-Glycine gel (Bio-Rad). Gel was run at 120V for 80 minutes or until the dye front reaches the end of the gel. Proteins were transferred from gel to nitrocellulose membrane using the iBlot 2 semi-dry Transfer apparatus. The membrane was used to detect total protein for normalization which follow the manufacturer's manual (Revert™ 700 Total Protein Stain, LI-COR). After that, the membrane rinsed once with TBST and blocked with h Intercept® Blocking Buffer for 1 hour at RT with gentle shaking. After blocking, membrane was washed with TBST and requisite antibody was added (1:1000) and kept for overnight at 4° C. on a shaker. […]

SOS1 = test: Photo-responsive labeling within live cells, streptavidin bead immunoprecipitation of biotinylated proteins, Western blot with anti-SOS1 antibody; assay type: cell-based, human; settings: KRAS (G12DHaloTag/+) protein reporter cells with photocatalyst, labeling partner and irradiation; no distinct band in control cells HD-103-037 and HD-PAR-006
Description: as §1, §2

ikaros (IKZF1) = test: Western blot of IKZF1 in lysates of HALO.CRBN Jurkat cells exposed to pomalidomide or lenalidomide; assay type: cell-based; settings: lanes, HALO.CRBN Jurkat cell lysates, compared with control or 1 μM pomalidomide lanes
From the text: A stable cell line, using Jurkat cells, was created where native cereblon (CRBN) was knocked out and a fusion of HaloTag protein and CRBN was expressed (referred to herein as “the HALO.CRBN Jurkat cell line”). […] The gel was stained using mouse anti-IKZF1 antibody. The dilution was 1:1000 and the exposure was about 10 seconds.

Halotag-KRAS(G12D) = test: Halotag chaser assay (TAMRA-Cl) for Ir-photocatalyst cell permeability, fluorescent Western blot; assay type: cell-based, human
Description: Photo-responsive labeling within cells was carried out as described similar to the procedure as described in Example 11. An Ir-photocatalyst master stock solution was prepared at 10 mM or 5 mM in 100% DMSO. KRAS (G12DHaloTag®/+) cells (HD-103-021, Horizon Discovery) were grown to 90% confluency in 6-well cell culture dishes using phenol-free RPMI1640 media (Gibco™). […] The cells were incubated for 1 or 2 hours at 37° C. The media was then aspirated and cells were gently washed twice with 2 mL fresh RPMI 1640, with an incubation of 10 minutes per wash at 37° C. TAMRA-Cl fluorescent dye (Promega, 68251) was diluted with OptiMEM to a 5 μM working solution. 0.8 mL of the working dye solution was added to the cells, and allowed to incubate for 15 minutes at 37° C. The cells were gently washed twice with 2 mL cold DPBS, aspirated, then added 200 μL RIPA supplemented with protease-phosphatase inhibitor (Halt™ Protease and Phosphatase Inhibitor Cocktail (100×)) and mixed briefly. The cell lysate was collected into 1.5 mL tubes. The cell lysate was sonicated using a probe-sonicator (SONICS vibra-cell Fisher Scientific) with 15 s on, 10 s off, at 30% amplitude for 3 cycles. The cell lysate was centrifuged at 18,000 g at 4° C. for 20 minutes. […] Cell lysates were processed and analyzed by fluorescent Western blot with anti-TAMRA and anti-β-Actin (for normalization) antibodies. […]

Row | Compound | PI3 Kinase P110α band after HALO-tag IP (FIG. 4A) (PI3 Kinase P110α) | biotinylation of BSA (anti-biotin fluorescent Western blot) [1] | SOS1 band after streptavidin IP (FIG. 5F) (SOS1) | IKZF1 level in Western blot (anti-IKZF1) (ikaros (IKZF1)) | binding to the Halotag (Halo-chaser assay, anti-TAMRA) (Halotag-KRAS(G12D); FIG. 21A, 1 hour treatment, 5 μM and 10 μM photocatalyst, KRAS (G12DHaloTag/+) cells, compared to DMSO control) | binding to the Halotag (Halo-chaser assay, anti-TAMRA) (Halotag-KRAS(G12D); FIG. 21B, 5 μM photocatalyst)
1 | [N-]=[N+]=Nc1ccc(C(=O)NCCOCCOCCOCCNC(=O)CCCC[C@@H]2SC[C@@H]3NC(=O)N[C@@H]32)cc1 [WH8, 4-azido-N-(13-oxo-17-((3aS,4S,6aR)-2-oxohexahydro-1H-thieno[3,4-d]imidazol-4-yl)-3,6,9-trioxa-12-azaheptadecyl)benzamide] | distinct band of PI3 Kinase P110α | biotinylated BSA bands | distinct SOS1 band observed | – | – | –
2 | Nc1cccc2c1C(=O)N(C1CCC(=O)NC1=O)C2=O (centres unmarked) [pomalidomide] | – | – | – | observably less IKZF1 | – | –
3 | Cc1ccnc(-c2cc(CCC(=O)NCCOCCOCCOCCOCCCCCCCl)ccn2)c1.Fc1cc(F)c(-c2ccc(C(F)(F)F)cn2)[c]([Ir+][c]2cc(F)cc(F)c2-c2ccc(C(F)(F)F)cn2)c1 [IR1] | distinct band of PI3 Kinase P110α | – | distinct SOS1 band observed | – | a little less binding to the Halo tag | majority binding
